Experimental findings from patent US7169393B2, “Antigenic peptide fragments of VapA protein, and uses thereof” (Rural Industries Research & Development Coporation, priority 2000, dated 2007) are described below.

The assay deals with antibodies in sera of foals (goat anti-horse IgG detection). In words: Peptide ELISA: biotinylated overlapping VapA peptides screened with foal sera. It is filed as binding. The note with it: for number of positive sera recognizing (positive with) the peptide: fifty-one positive sera (foals with current R. equi disease), 1 in 250, positive = at least twice background OD at 450 nm. From the text:
Biotinylated peptides synthesized by Mimotopes, Victoria, Australia were used in all assays. The peptide bank used in the initial screening of sera was designed based upon the published sequence of VapA (Genbank accession No: D21236). A total of 50 overlapping peptides, each 11 amino acid residues in length (offset by 3 residues at a time) were synthesized beginning from the predicted signal peptide cleavage site between amino acids 31 and 32 up to and including the C terminus.
A total of seventy foal sera, most of these from animals aged between 4 to 12 weeks, were used to screen the peptides. Fifty-one sera were from foals with current R. equi disease (positive sera). Sixteen sera were from foals with no known history of R. equi infection and three sera were from foals that had recovered from R. equi infection 10 months previously (negative sera). Thirty-nine of the positive sera and all negative sera were obtained from studs in South Australia and New South Wales, Australia.
Biotin-SGSG(spacer) labelled peptide units were used as antigen targets. Neutravidin bound to the surface of a micro-titre plate was then used to bind the biotin labelled peptide to the plate. The procedure is as follows:
A solution of neutravidin was diluted 1 in 300 in sterile distilled water to a final concentration of 3.3 μg/ml, and 100 μl per well was added to a micro-titre plate and the plate was left overnight at 37° C. 200 μl 1% casein/1×PBS/0.05% Tween 20 was then added to each well and the plate was left for at least 1 hour at room temperature (or at 4° C. if left longer) before the solution in the plate was flicked out. The plate was then washed five times with 1×PBS/0.05% Tween 20 using an automatic plate washer and the plates were dried by slapping against absorbent paper. […]
The plate was then read using an ELISA plate reader at 450 nm.
Interpretation of data. […] The background OD was the mean of the lowest 50% of all OD values obtained with that particular serum and all OD readings that were twice this value were considered positive. […]
Background: An ELISA detects its analyte on a solid surface through an enzyme-linked reagent.

As to YLNINFFDSSG [Seq I.D. No. 133], the “number of positive sera recognizing (positive with) the peptide” value was “Ten”.

NLQKDEPNGRA [Seq I.D. No. 47]: the “number of positive sera recognizing (positive with) the peptide” value is reported as “fifty-one”. The “number of positive sera positive with only this peptide” value (fifty-one positive sera, fifty-peptide bank) is “two”.
